From patent US12729407B2, “Mucins and isoforms thereof in diseases characterized by barrier dysfunction” (priority 2020, dated 2026)
Where two headings read alike, the source gives them in different places.

Tested on: Calu3 cells infected with SARS-CoV-2
Assay type: cell-based, human
[1] = Calu3 cells, SARS-CoV-2 0.1 MOI 2 h, then drug 48 h, vs untreated infected cells

Compound | MUC1 mRNA expression | MUC4 mRNA expression | MUC5AC mRNA expression | MUC5B mRNA expression | MUC13 mRNA expression | MUC21 mRNA expression | mucin hypersecretion (mucins of the signature: MUC13, MUC21, MUC16 and MUC1) (concluding remark on the Calu3 drug screen) | MUC1 mRNA expression [1] | MUC4 mRNA expression [1] | MUC21 mRNA expression [1]
NC(=O)c1nc(F)c[nH]c1=O [favipiravir] | increase | decrease | decrease | decrease | decrease | decrease | suppress mucin hypersecretion |  |  | 
Tocilizumab [toculizumab] |  |  |  |  |  |  |  | significantly reduce | significantly reduce | significantly reduce
